Laboratory results: ChEMBL document CHEMBL3885881, “DrugMatrix”

Organism: Rattus norvegicus
Assay: DrugMatrix - Regimen: Daily Repeat
Assay type: toxicity, organism-based, Sprague-Dawley
Parameters: regimen Daily Repeat, gender Male, age 6-8 weeks
Conditions: in vivo, po, route oral GAVAGE, […]; for ABSOLUTE BASOPHIL / ABSOLUTE EOSINOPHIL / ABSOLUTE LYMPHOCYTE / ABSOLUTE MONOCYTE / ABSOLUTE SEGMENTED NEUTROPHIL / BASOPHIL / EOSINOPHIL / ERYTHROCYTE COUNT / HEMATOCRIT / HEMOGLOBIN / LEUKOCYTE COUNT / LYMPHOCYTE / MEAN CORPUSCULAR HEMOGLOBIN / MEAN CORPUSCULAR HEMOGLOBIN CONCENTRATION / MEAN CORPUSCULAR VOLUME / MONOCYTE / NEUTROPHIL / NUCLEATED RED BLOOD CELLS / PLATELET COUNT: tissue Blood; for ALANINE AMINOTRANSFERASE / ALBUMIN / ALKALINE PHOSPHATASE / ASPARTATE AMINOTRANSFERASE / BLOOD UREA NITROGEN / CARBON DIOXIDE / CHLORIDE / CHOLESTEROL / CREATINE PHOSPHOKINASE / CREATININE / GLUCOSE / LACTATE DEHYDROGENASE / LIPASE / PHOSPHORUS / POTASSIUM / SODIUM / TOTAL BILIRUBIN / TOTAL PROTEIN / URIC ACID: tissue Plasma
[1] = 10 mg/kg, 120 h, dose level Low, time 5 day
[2] = 250 mg/kg, 72 h, dose level High, time 3 day
[3] = 250 mg/kg, 120 h, dose level High, time 5 day

SMILES: COc1cc(N)c(Cl)cc1C(=O)NC1CCN(CCCOc2ccc(F)cc2)CC1OC (centres undefined) [CISAPRIDE]
- ABSOLUTE BASOPHIL [1]: 0 CELLS/uL
- ABSOLUTE EOSINOPHIL [1]: 0 CELLS/uL
- ABSOLUTE LYMPHOCYTE [1]: 8665 CELLS/uL
- ABSOLUTE MONOCYTE [1]: 47.33 CELLS/uL
- ABSOLUTE SEGMENTED NEUTROPHIL [1]: 387.67 CELLS/uL
- BASOPHIL [1]: 0%
- EOSINOPHIL [1]: 0%
- ERYTHROCYTE COUNT [1]: 6.01 x10E6/uL
- HEMATOCRIT [1]: 36.43%
- HEMOGLOBIN [1]: 13.9 G/DL
- LEUKOCYTE COUNT [1]: 9.1 x10E3/uL
- LYMPHOCYTE [1]: 94.67%
- MEAN CORPUSCULAR HEMOGLOBIN [1]: 23.2 pg
- MEAN CORPUSCULAR HEMOGLOBIN CONCENTRATION [1]: 38.17 G/DL
- MEAN CORPUSCULAR VOLUME [1]: 60.73 fL
- MONOCYTE [1]: 0.67%
- NEUTROPHIL [1]: 4.67%
- NUCLEATED RED BLOOD CELLS [1]: 0.33 /100WBC
- PLATELET COUNT [1]: 1215.33 x10E3/uL
- ALANINE AMINOTRANSFERASE [1]: 83.67 u/L
- ALBUMIN [1]: 4.23 G/DL
- ALKALINE PHOSPHATASE [1]: 427.67 u/L
- ASPARTATE AMINOTRANSFERASE [1]: 78.33 u/L
- BLOOD UREA NITROGEN [1]: 13.67 mg/dL
- CARBON DIOXIDE [1]: 35 mmol/L
- CHLORIDE [1]: 99.33 MEQ/L
- CHOLESTEROL [1]: 86.33 mg/dL
- CREATINE PHOSPHOKINASE [1]: 161.33 u/L
- CREATININE [1]: 0.16 mg/dL
- GLUCOSE [1]: 163 mg/dL
- LACTATE DEHYDROGENASE [1]: 134.33 u/L
- LIPASE [1]: 11 u/L
- PHOSPHORUS [1]: 9.6 mg/dL
- POTASSIUM [1]: 5.19 MEQ/L
- SODIUM [1]: 143.17 MEQ/L
- TOTAL BILIRUBIN [1]: 0.17 mg/dL
- TOTAL PROTEIN [1]: 6.1 G/DL
- URIC ACID [1]: 0.37 mg/dL
- ABSOLUTE BASOPHIL [2]: 0 CELLS/uL
- ABSOLUTE EOSINOPHIL [2]: 36.33 CELLS/uL
- ABSOLUTE LYMPHOCYTE [2]: 10590.67 CELLS/uL
- ABSOLUTE MONOCYTE [2]: 0 CELLS/uL
- ABSOLUTE SEGMENTED NEUTROPHIL [2]: 573 CELLS/uL
- BASOPHIL [2]: 0%
- EOSINOPHIL [2]: 0.33%
- ERYTHROCYTE COUNT [2]: 5.39 x10E6/uL
- HEMATOCRIT [2]: 32.73%
- HEMOGLOBIN [2]: 13.17 G/DL
- LEUKOCYTE COUNT [2]: 11.2 x10E3/uL
- LYMPHOCYTE [2]: 94.67%
- MEAN CORPUSCULAR HEMOGLOBIN [2]: 24.43 pg
- MEAN CORPUSCULAR HEMOGLOBIN CONCENTRATION [2]: 40.2 G/DL
- MEAN CORPUSCULAR VOLUME [2]: 60.73 fL
- MONOCYTE [2]: 0%
- NEUTROPHIL [2]: 5%
- NUCLEATED RED BLOOD CELLS [2]: 0 /100WBC
- PLATELET COUNT [2]: 918 x10E3/uL
- ALANINE AMINOTRANSFERASE [2]: 102.67 u/L
- ALBUMIN [2]: 3.83 G/DL
- ALKALINE PHOSPHATASE [2]: 517.33 u/L
- ASPARTATE AMINOTRANSFERASE [2]: 96 u/L
- BLOOD UREA NITROGEN [2]: 13 mg/dL
- CARBON DIOXIDE [2]: 26 mmol/L
- CHLORIDE [2]: 95 MEQ/L
- CHOLESTEROL [2]: 89.67 mg/dL
- CREATINE PHOSPHOKINASE [2]: 253 u/L
- CREATININE [2]: 0.15 mg/dL
- GLUCOSE [2]: 137.33 mg/dL
- LACTATE DEHYDROGENASE [2]: 118.33 u/L
- LIPASE [2]: 12.33 u/L
- PHOSPHORUS [2]: 10.77 mg/dL
- POTASSIUM [2]: 5.65 MEQ/L
- SODIUM [2]: 138.1 MEQ/L
- TOTAL BILIRUBIN [2]: 0.17 mg/dL
- TOTAL PROTEIN [2]: 5.5 G/DL
- URIC ACID [2]: 0.6 mg/dL
- ABSOLUTE BASOPHIL [3]: 0 CELLS/uL
- ABSOLUTE EOSINOPHIL [3]: 43.33 CELLS/uL
- ABSOLUTE LYMPHOCYTE [3]: 8832 CELLS/uL
- ABSOLUTE MONOCYTE [3]: 95.67 CELLS/uL
- ABSOLUTE SEGMENTED NEUTROPHIL [3]: 595.67 CELLS/uL
- BASOPHIL [3]: 0%
- EOSINOPHIL [3]: 0.33%
- ERYTHROCYTE COUNT [3]: 5.74 x10E6/uL
- HEMATOCRIT [3]: 35.13%
- HEMOGLOBIN [3]: 13.57 G/DL
- LEUKOCYTE COUNT [3]: 9.57 x10E3/uL
- LYMPHOCYTE [3]: 92%
- MEAN CORPUSCULAR HEMOGLOBIN [3]: 23.67 pg
- MEAN CORPUSCULAR HEMOGLOBIN CONCENTRATION [3]: 38.63 G/DL
- MEAN CORPUSCULAR VOLUME [3]: 61.23 fL
- MONOCYTE [3]: 1%
- NEUTROPHIL [3]: 6.67%
- NUCLEATED RED BLOOD CELLS [3]: 0.67 /100WBC
- PLATELET COUNT [3]: 1240.33 x10E3/uL
- ALANINE AMINOTRANSFERASE [3]: 89 u/L
- ALBUMIN [3]: 3.93 G/DL
- ALKALINE PHOSPHATASE [3]: 342 u/L
- ASPARTATE AMINOTRANSFERASE [3]: 87.67 u/L
- BLOOD UREA NITROGEN [3]: 14.67 mg/dL
- CARBON DIOXIDE [3]: 34 mmol/L
- CHLORIDE [3]: 99.5 MEQ/L
- CHOLESTEROL [3]: 78.33 mg/dL
- CREATINE PHOSPHOKINASE [3]: 245 u/L
- CREATININE [3]: 0.15 mg/dL
- GLUCOSE [3]: 170.67 mg/dL
- LACTATE DEHYDROGENASE [3]: 145 u/L
- LIPASE [3]: 12.67 u/L
- PHOSPHORUS [3]: 10.53 mg/dL
- POTASSIUM [3]: 5.47 MEQ/L
- SODIUM [3]: 141.95 MEQ/L
- TOTAL BILIRUBIN [3]: 0.17 mg/dL
- TOTAL PROTEIN [3]: 5.57 G/DL
- URIC ACID [3]: 0.67 mg/dL
